Laboratory results as given in patent publication US20150004202A1, “ANTIBACTERIAL AGENT AGAINST PLANT DISEASE-CAUSING BACTERIA” (priority 2012, published 2015).
≈ marks a conversion by molar mass, not a printed value. Read-outs that look alike come from different tables or passages of the source.

Legend:
[1] = tested on: Curtobacterium flaccumfaciens pv. flaccumfaciens standard strain (JCM1347), kidney bean wilt-causing bacterium; assay: MIC of various amino acid-containing particles, HI medium; type: cell-based; details: 24 hours after addition
[2] = tested on: Clavibacter michiganensis subsp. michiganensis (field isolates KNOB16, KNOB23), tomato canker-causing bacteria; assay: MIC by broth microdilution (investigation of measurement conditions); type: cell-based
[3] = tested on: field isolates listed in Table 6 (KNOB30 to KNOB110), bacteria pathogenic to crops; assay: MIC of various amino acid-containing particles, HI medium; type: cell-based; details: 24 hours after addition
Experimental: (1) Freeze-stored 4 strains were seeded on heart infusion medium and PSA medium. (2) Seeded bacteria were cultured at 25° C. for 48 hours. (3) The antibacterial activity was assessed by measurement of the minimum inhibitory concentration (MIC) in accordance with a broth microdilution method. HI medium prepared without agar was used as a liquid medium. […] The above-described antibacterial agents were added to the liquid media at various concentrations, respectively, and the cultured bacteria described in (2) were inoculated thereto, followed by judgement of the results 24 hours and 48 hours after inoculation. The tests were repeated three times (n=3).
The antibacterial activity of nanoparticles containing Gly, Arg, Asp, or Ala produced above was examined. As test bacteria, field isolates listed in Table 6, tomato canker-causing bacteria standard strains (JCM1370, JCM1373), and kidney bean wilt-causing bacterium Curtobacterium flaccumfaciens pv. flaccumfaciens standard strain (JCM1347) were used.

[4] = tested on: tomato canker-causing bacteria standard strains (JCM1370, JCM1373); type: cell-based, Clavibacter michiganensis subsp. michiganensis; details: 24 hours after addition
[5] = tested on: Ralstonia solanacearum (field isolates KNOB38, KNOB39), eggplant wilt-causing bacteria; assay: microbe, parasite or virus in culture; type: cell-based
[6] = Curtobacterium flaccumfaciens, read-out: MIC
[7] = Clavibacter michiganensis, 24 h, KNOB16, HI medium, 24 H later
[8] = Clavibacter michiganensis, 24 h, KNOB16, PSA medium, 24 H later
[9] = Clavibacter michiganensis, 24 h, KNOB23, HI medium, 24 H later
[10] = Clavibacter michiganensis, 24 h, KNOB23, PSA medium, 24 H later
[11] = Clavibacter michiganensis, 48 h, KNOB16, HI medium, 48 H later
[12] = Clavibacter michiganensis, 48 h, KNOB16, PSA medium, 48 H later
[13] = Clavibacter michiganensis, 48 h, KNOB23, HI medium, 48 H later
[14] = Clavibacter michiganensis, 48 h, KNOB23, PSA medium, 48 H later
[15] = 24 h, KNOB30, HI medium, read-out: MIC
[16] = 24 h, KNOB33, HI medium, read-out: MIC
[17] = 24 h, KNOB67, HI medium, read-out: MIC
[18] = 24 h, KNOB75, HI medium, read-out: MIC
[19] = 24 h, KNOB105, HI medium, read-out: MIC
[20] = 24 h, KNOB106, HI medium, read-out: MIC
[21] = 24 h, KNOB108, HI medium, read-out: MIC
[22] = 24 h, KNOB110, HI medium, read-out: MIC

CC1(C)S[C@@H]2[C@H](NC(=O)[C@H](N)c3ccccc3)C(=O)N2[C@H]1C(=O)O [ABPC, ampicillin]
MIC [1, 6]: 2 µg/mL
MIC [2, 7]: 0.25 µg/mL (≈ 0.715 µM)
MIC [2, 8]: 0.5 µg/mL (≈ 1.43 µM)
MIC [2, 9]: 0.25 µg/mL (≈ 0.715 µM)
MIC [2, 10]: 0.5 µg/mL (≈ 1.43 µM)
MIC [2, 11]: 0.25 µg/mL (≈ 0.715 µM)
MIC [2, 12]: 1 µg/mL (≈ 2.86 µM)
MIC [2, 13]: 0.25 µg/mL (≈ 0.715 µM)
MIC [2, 14]: 0.5 µg/mL (≈ 1.43 µM)
MIC [3, 15]: 0.5 µg/mL
MIC [3, 16]: < 0.25 µg/mL
MIC ([3]; 24 h, KNOB64, HI medium): < 0.25 µg/mL
MIC [3, 17]: < 0.25 µg/mL
MIC [3, 18]: 0.5 µg/mL
MIC [3, 19]: < 0.25 µg/mL
MIC [3, 20]: < 0.25 µg/mL
MIC [3, 21]: 0.5 µg/mL
MIC [3, 22]: < 0.25 µg/mL
MIC ([4]; JCM1370, HI medium): 0.5 µg/mL (≈ 1.43 µM)
MIC ([4]; JCM1373, HI medium): 1 µg/mL (≈ 2.86 µM)
MIC ([5]; KNOB39, HI medium, 24 H later): 0.5 µg/mL (≈ 1.43 µM)
MIC ([5]; KNOB39, HI medium, 48 H later): 0.5 µg/mL (≈ 1.43 µM)
MIC ([5]; Ralstonia solanacearum, 24 h): 0.5 µg/mL (≈ 1.43 µM)
MIC ([5]; Ralstonia solanacearum, 48 h): 0.5 µg/mL (≈ 1.43 µM)

CCO [EtOH, ethanol]
MIC [1]: 15 µg/mL
MIC ([2]; KNOB16, HI medium, 24 H later): 15 µg/mL (≈ 326 µM)
MIC ([2]; KNOB16, HI medium, 48 H later): 30 µg/mL (≈ 651 µM)
MIC ([2]; KNOB16, PSA medium, 24 H later): 60 µg/mL (≈ 1300 µM)
MIC ([2]; KNOB16, PSA medium, 48 H later): 7.5 µg/mL (≈ 163 µM)
MIC ([2]; KNOB23, HI medium, 24 H later): 15 µg/mL (≈ 326 µM)
MIC ([2]; KNOB23, HI medium, 48 H later): 30 µg/mL (≈ 651 µM)
MIC ([2]; KNOB23, PSA medium, 24 H later): 7.5 µg/mL (≈ 163 µM)
MIC ([2]; KNOB23, PSA medium, 48 H later): 15 µg/mL (≈ 326 µM)
MIC ([3]; KNOB30, HI medium): 30 µg/mL
MIC ([3]; KNOB33, HI medium): 30 µg/mL
MIC ([3]; KNOB64, HI medium): 30 µg/mL
MIC ([3]; KNOB67, HI medium): 30 µg/mL
MIC ([3]; KNOB75, HI medium): 60 µg/mL
MIC ([3]; KNOB105, HI medium): 15 µg/mL
MIC ([3]; KNOB106, HI medium): 7.5 µg/mL
MIC ([3]; KNOB108, HI medium): 15 µg/mL
MIC ([3]; KNOB110, HI medium): 15 µg/mL
MIC ([4]; JCM1370, HI medium): 15 µg/mL (≈ 326 µM)
MIC ([4]; JCM1373, HI medium): 30 µg/mL (≈ 651 µM)
MIC ([5]; KNOB38, HI medium, 24 H later): 7.5 µg/mL (≈ 163 µM)
MIC ([5]; KNOB38, HI medium, 48 H later): 15 µg/mL (≈ 326 µM)
MIC ([5]; KNOB39, HI medium, 24 H later): 7.5 µg/mL (≈ 163 µM)
MIC ([5]; KNOB39, HI medium, 48 H later): 7.5 µg/mL (≈ 163 µM)
antibacterial activity against eggplant wilt-causing bacteria compared with KAS ([5]; comparison of MIC values of Table 5): stronger than KAS and nanoparticles

C[C@H]1O[C@H](O[C@H]2[C@H](O)[C@@H](O)[C@@H](O)[C@H](O)[C@@H]2O)[C@@H](N)C[C@@H]1NC(=N)C(=O)O [KAS, kasugamycin]
MIC [1]: 128 µg/mL
MIC ([2]; KNOB16, HI medium, 24 H later): 32 µg/mL (≈ 84.4 µM)
MIC ([2]; KNOB16, HI medium, 48 H later): 32 µg/mL (≈ 84.4 µM)
MIC ([2]; KNOB16, PSA medium, 24 H later): 16 µg/mL (≈ 42.2 µM)
MIC ([2]; KNOB16, PSA medium, 48 H later): 16 µg/mL (≈ 42.2 µM)
MIC ([2]; KNOB23, HI medium, 24 H later): 32 µg/mL (≈ 84.4 µM)
MIC ([2]; KNOB23, HI medium, 48 H later): 32 µg/mL (≈ 84.4 µM)
MIC ([2]; KNOB23, PSA medium, 24 H later): 16 µg/mL (≈ 42.2 µM)
MIC ([2]; KNOB23, PSA medium, 48 H later): 32 µg/mL (≈ 84.4 µM)
MIC ([3]; KNOB30, HI medium): 32 µg/mL
MIC ([3]; KNOB33, HI medium): 64 µg/mL
MIC ([3]; KNOB64, HI medium): 64 µg/mL
MIC ([3]; KNOB67, HI medium): 64 µg/mL
MIC ([3]; KNOB75, HI medium): 64 µg/mL
MIC ([3]; KNOB105, HI medium): 32 µg/mL
MIC ([3]; KNOB106, HI medium): 32 µg/mL
MIC ([3]; KNOB108, HI medium): 32 µg/mL
MIC ([3]; KNOB110, HI medium): 32 µg/mL
MIC ([4]; JCM1370, HI medium): 128 µg/mL (≈ 337 µM)
MIC ([4]; JCM1373, HI medium): 64 µg/mL (≈ 169 µM)
MIC ([5]; KNOB38, HI medium, 24 H later): 8 µg/mL (≈ 21.1 µM)
MIC ([5]; KNOB38, HI medium, 48 H later): 16 µg/mL (≈ 42.2 µM)
MIC ([5]; KNOB39, HI medium, 24 H later): 8 µg/mL (≈ 21.1 µM)
MIC ([5]; KNOB39, HI medium, 48 H later): 16 µg/mL (≈ 42.2 µM)

[H]/N=C(/N)N[C@H]1[C@H](O)[C@@H](O)[C@H](O[C@@H]2O[C@@H](C)[C@](O)(C=O)[C@H]2O[C@@H]2O[C@@H](CO)[C@H](O)[C@@H](O)[C@@H]2NC)[C@@H](N/C(N)=N\[H])[C@@H]1O [ST, streptomycin]
MIC [1, 6]: 0.39 µg/mL
MIC [2, 7]: 2 µg/mL (≈ 3.44 µM)
MIC [2, 8]: 4 µg/mL (≈ 6.88 µM)
MIC [2, 9]: 1 µg/mL (≈ 1.72 µM)
MIC [2, 10]: 4 µg/mL (≈ 6.88 µM)
MIC [2, 11]: 2 µg/mL (≈ 3.44 µM)
MIC [2, 12]: 8 µg/mL (≈ 13.8 µM)
MIC [2, 13]: 1 µg/mL (≈ 1.72 µM)
MIC [2, 14]: 4 µg/mL (≈ 6.88 µM)
MIC [3, 15]: 1.56 µg/mL
MIC [3, 16]: 0.78 µg/mL
MIC ([3]; 24 h, KNOB64, HI medium): 1.56 µg/mL
MIC [3, 17]: 1.56 µg/mL
MIC [3, 18]: 1.56 µg/mL
MIC [3, 19]: 1.56 µg/mL
MIC [3, 20]: 1.56 µg/mL
MIC [3, 21]: 1.56 µg/mL
MIC [3, 22]: 1.56 µg/mL
MIC ([4]; JCM1370, HI medium): 3.9 µg/mL (≈ 6.71 µM)
MIC ([4]; JCM1373, HI medium): 7.8 µg/mL (≈ 13.4 µM)
MIC ([5]; KNOB39, HI medium, 24 H later): 8 µg/mL (≈ 13.8 µM)
MIC ([5]; KNOB39, HI medium, 48 H later): 8 µg/mL (≈ 13.8 µM)
MIC ([5]; Ralstonia solanacearum, 24 h): 8 µg/mL (≈ 13.8 µM)
MIC ([5]; Ralstonia solanacearum, 48 h): 8 µg/mL (≈ 13.8 µM)
